Like-named read-outs stand apart in the source and are kept apart here.
How the values were obtained:
MCF-7 cells = experiment: MTT assay of metabolic activity, MCF-7; format: cell-based, human; conditions: Homo sapiens
Experimental: The GW7604-Alk-PtCl3 complexes (with exclusion of GW7604-Prop-PtCl3) were investigated for cytotoxic effects in SKBr3 (ER-negative, COX-2-positive, Figure 6), MCF-7 (ERα-positive, COX-negative, Figure 6), and noncancerous TSA-201 (human embryonal kidney) cells at concentrations of 10–30 μM using an established MTT (3-(4,5-dimethylthiazol-2-yl)-2,5-diphenyltetrazolium bromide) assay.[60],[69]
After incubation for 72 h, the amounts of surviving, metabolically active cells were quantified based on their ability to transform the water-soluble yellow dye MTT to a purple formazan, which can be analyzed by UV–vis spectroscopy.
The exponentially growing cells were seeded at a density of 1750 (MCF-7), 2000 (SKBr3), and 1250 (TSA-201) cells/well into clear flat-bottom 96-well plates in triplicate. Following 24 h of incubation at 37 °C in a humidified atmosphere (5% CO2/95% air), the compounds [freshly prepared stock solutions in DMF, diluted with DMEM to the desired concentration (final DMF concentration of 0.1% (v/v))] were added to reach the indicated concentrations. After another 72 h of incubation, the cellular metabolic activity was measured employing an MTT assay. By adding predissolved MTT reagent in PBS at a final concentration of 0.5 mg/mL, the metabolic activity can be determined via an enzymatic conversion to a purple formazan salt. After 3 h, the medium was aspirated, and 200 μL of DMSO was added to dissolve the formed formazan crystals. The absorbance was measured at 570 and 690 nm (turbidity assessment) using an EnSpire plate reader (PerkinElmer, Waltham, MA, USA). Solvent-treated cells without a compound served as the positive control. Metabolic activity was calculated by the following equation [drawing 1]

[1] = molecular target: T1, ERα ligand-binding domain (Homo sapiens, UniProt P03372); experiment: TR-FRET ligand binding assay, isolated LBD of ERα
T1 construct: purchased Invitrogen
T1 sequence (P03372 311-547 limits assumed): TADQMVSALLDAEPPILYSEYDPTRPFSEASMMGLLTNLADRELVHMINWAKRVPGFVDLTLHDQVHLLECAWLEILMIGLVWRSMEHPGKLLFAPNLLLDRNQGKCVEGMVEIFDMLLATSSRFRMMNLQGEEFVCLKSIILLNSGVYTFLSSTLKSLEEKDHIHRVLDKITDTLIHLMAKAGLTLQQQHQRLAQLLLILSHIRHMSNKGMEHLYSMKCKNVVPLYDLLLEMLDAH
Experimental: (§1) A modified LanthaScreen TR-FRET alpha/beta assay was performed, according to the manufacturer’s protocol (Invitrogen, Carlsbad, […]), to determine the binding affinity to the isolated LBD. […] Measurements were carried out on a multimode plate reader, Tecan Spark (Tecan, Männedorf, Switzerland). Calculations and visualization were performed with GraphPad Prism 8.0 (GraphPad Software, San Diego, CA, USA).

[2] = molecular target: T2, ERβ ligand-binding domain (Homo sapiens, UniProt Q92731); experiment: TR-FRET ligand binding assay, isolated LBD of ERβ
T2 construct: purchased Invitrogen
T2 sequence (Q92731 264-498 limits assumed): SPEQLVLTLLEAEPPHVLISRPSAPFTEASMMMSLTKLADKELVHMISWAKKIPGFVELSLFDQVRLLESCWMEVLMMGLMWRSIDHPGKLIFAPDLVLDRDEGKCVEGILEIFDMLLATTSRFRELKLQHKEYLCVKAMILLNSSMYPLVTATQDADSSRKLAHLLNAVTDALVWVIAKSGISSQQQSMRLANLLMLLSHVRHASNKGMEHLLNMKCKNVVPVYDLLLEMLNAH
Experimental: as §1

[3] = MCF7, 72 h, MTT, read-out: IC50 MCF-7

Structure (SMILES): CCC(=C(c1ccc(O)cc1)c1ccc(C=CC(=O)O)cc1)c1ccccc1 (mixture of isomers) [GW7604, (E)-3-(4-((E/Z)-1-(4-hydroxyphenyl)-2-phenylbut-1-en-1-yl)phenyl)acrylic acid]
- IC50 (MCF-7 cells; MCF7, read-out: IC50, reduction of growth of MCF-7 cells): 171 nM

Structure (SMILES): C=CCCOC(=O)/C=C/c1ccc(C(=C(CC)c2ccccc2)c2ccc(O)cc2)cc1 (mixture of isomers) [GW7604-But, But-3-en-1-yl (E)-3-(4-((E/Z)-1-(4-hydroxyphenyl)-2-phenylbut-1-en-1-yl)phenyl) Acrylate]
- IC50 (MCF-7 cells; [3]): > 30000 nM

Structure (SMILES): C=CCCCCOC(=O)/C=C/c1ccc(C(=C(CC)c2ccccc2)c2ccc(O)cc2)cc1 (mixture of isomers) [GW7604-Hex, Hex-5-en-1-yl (E)-3-(4-((E/Z)-1-(4-hydroxyphenyl)-2-phenylbut-1-en-1-yl)phenyl) Acrylate]
- IC50 (MCF-7 cells; [3]): > 30000 nM

Structure (SMILES): C=CCCCOC(=O)/C=C/c1ccc(C(=C(CC)c2ccccc2)c2ccc(O)cc2)cc1 (mixture of isomers) [GW7604-Pent, Pent-4-en-1-yl (E)-3-(4-((E/Z)-1-(4-hydroxyphenyl)-2-phenylbut-1-en-1-yl)phenyl) Acrylate]
- RBA (ERα) ([1]; RBA(E2) = 100%): 0.90%
- IC50 ([1]; read-out: IC50 (ERα), displacement from the LBS): 39.1 nM
- IC50 (MCF-7 cells; [3]): > 30000 nM
- RBA (ERβ) ([2]; RBA(E2) = 100%): 0.23%
- IC50 ([2]; read-out: IC50 (ERβ), displacement from the LBS): 105 nM
